Entries after “also recorded” stand apart in the source; their conditions may differ.
What was measured:
[1] = tested on: primary cultured cortical neurons; test: OGD/RO-induced cell death in primary cultured cortical neurons, LDH release assay; type: cell-based, rat; settings: 2.5 μM of each isoflavone, pre-treatment, 4 h OGD + 20 h RO
Protocol: Primary cultured cortical neurons were isolated from embryonic Sprague-Dawley rats (E17). After digested by 0.25% trypsin (Invitrogen Corp., Carlsbad, Calif.), cells were collected and suspended in Dulbecco's modified eagle medium (DMEM) containing 10% horse serum, 1% L-glutamine and antibiotic mixture. The resulting single cell suspensions were seeded on 24-well or 6-well plates pre-treated with poly-D-lysine (Sigma-Aldrich, St. Louis, Mo.). After seeded for four hours, medium was replaced with neurobasal medium containing 2% B27, 1% L-glutamine and antibiotics mixture and cell culture was maintained at 37° C. and 5% CO2.
Both oxygen-glucose deprivation plus reoxygenation (OGD/RO) and excitotoxicity experiments were conducted. In OGD/RO experiments, primary cultured neurons were exposed to neurobasal medium without glucose and incubated in a hypoxia chamber (Billups-Rothenberg, Inc., San Diego, Calif.) perfused with a mixed gas containing 95% N2 and 5% CO2 until medium oxygen concentration reached 0.1%, which was monitored with a PA-10A paramagnetic 02 analyzer (Sable Systems International, North Las Vegas, Nev.). After cells were exposed to OGD at 37° C. for four hours, the medium was replaced with normal glucose-containing medium and the plates were put into normal culture condition for 20 hours for reoxygenation. In excitotoxicity experiments, primary cultured neurons were treated with L-glutamate (8 mM, Sigma-Aldrich, St. Louis, Mo.) for six hours. […]
LDH release assay was performed for detecting cell death with Cytotoxicity Detection Kit (Invitrogen Corp., Carlsbad, Calif.). In brief, culture medium was collected and incubated with the reaction mixture for 30 minutes at room temperature (24° C.). […] The optical density of the solution was measured at 490 nm on a microplate reader (Model 3350, Bio-Rad Laboratories, Inc., Hercules, Calif.). The cell death rate was calculated by using the formula: Cell death rate (%)=(Experimental absorbance value−culture medium absorbance value)/(Triton-X 100-treated absorbance value−culture medium absorbance value)×100%.

[2] = tested on: rat MCAO ischemia-reperfusion model; test: MCAO cerebral ischemia-reperfusion model, infarct volume (TTC) and neurology score; type: in vivo; settings: for infarct volume in comparison with vehicle group: 20 μmol/kg i.p., single isoflavone; for infarct volume in comparison with vehicle group / infarct volume: 1.5 h MCAO + 22.5 h reperfusion; for neurological function (neurological deficit score) versus vehicle group: 60 μmol/kg i.p.; for infarct volume: 60 μmol/kg i.p. 30 min before MCAO, vehicle 27.93%±7.1%
Description: Male adult Sprague-Daweley rats (250 g to 270 g) were obtained from Laboratorial Animal Unit, the University of Hong Kong (HKU) and University of New Mexico (UNM). All animal experiments were approved and regulated by the Committee on the Use of Live Animals in Teaching and Research, HKU and the Laboratory Animal Care and Use Committee, UNM. All efforts were made to minimize animal suffering and to reduce the number of animals used.
Rats were subjected to MCAO to induce cerebral ischemia-reperfusion as previously described (Shen et al., 2006. J Neurochem 96(4):1078-1089). Briefly, rats were anaesthetized by inhalation of 5% isoflurane and maintained with 2% isoflurane in a mixture of 70% N2O and 30% 02. After vessels isolation, a 3/0 monofilament nylon suture (Johnson & Johnson Health Care Systems, Inc., Piscataway, N.J.) was inserted into the external carotid artery and advanced into the internal carotid artery and anterior cerebral artery to occlude the middle cerebral artery. After occlusion for 1.5 hours, the suture was removed to induce reperfusion and maintained for 22.5 hours. After operation, rats were transferred to intensive care incubator in which the temperature was kept at 37° C. until animals woke up completely.
Isoflavones (C, F, and D) were dissolved in dimethyl sulfoxide (DMSO) and diluted with peanut oil to the indicated working solution and intraperitoneally (i.p.) injected to rats 30 minutes before suture insertion for MCAO. The same volume of DMSO and peanut oil were used as vehicle control. In parallel experiments, for mechanistic study, ER antagonist ICI 182780 or PI3K inhibitor LY-294002 was intracerebroventricularly (i.c.v.) injected into the rat lateral ventricle 60 minutes before ischemia onset. Briefly, after anaesthetization, rat was placed on a stereotaxic apparatus and fixed well. A 22-gauge, 12 mm stainless-steel guide cannula was inserted in the left lateral ventricle of the brain. The needle was inserted 4.5 mm deep, 1.5 mm lateral to sagiture and 0.8 mm posterior to bregma to reach the lateral ventricle. Then, ICI 182780 dissolved in DMSO (1 μM) or LY-294002 (10 mM) was slowly injected into lateral ventricle and the needle was kept for at least 30 seconds before removal. The same volume of DMSO was used as a negative control.
After 24 hours of reperfusion, rat brains were isolated and sliced into coronal sections followed by staining with 2,3,5-triphenyltetrazolium chloride (TTC, Sigma-Aldrich, St. Louis, Mo.) at 37° C. for 20 minutes. The ischemic area was evaluated by calculating the hemispheric lesion area with ImageJ software (ImageJ-1.38x; Schneider et al., 2012. Nature methods 9(7):671-675), the relative infarct volume percentage (RIVP) was calculated as RIVP=IVA/TA×100%, IVA was the total infract area of five coronal sections, TA was the total area of five sections.
Neurological function was determined by 9-scale methods containing dysfunctional paw test, postural reflex test and circling test according to a previous report (Bederson et al., 1986. Stroke 17(3):472-476). Each score was summed and represented as a single overall neurological score (0 to 8).

[3] = AR extract orally administrated to rats; cited from earlier work

Row | Structure (SMILES) | reduction in the rate of cell death as compared to vehicle control, OGD/RO [1] | infarct volume in comparison with vehicle group [2] | neurological function (neurological deficit score) versus vehicle group [2] | infarct volume [2] | effect of ICI 182780 co-treatment on neuroprotective effect on infarct volume ([2]; ICI 182780 i.c.v. 1 h before ischemia, isoflavone i.p. 30 min before ischemia) | infarct volume in comparison with vehicle group ([2]; listed as daidzein) | fraction metabolized into D and its conjugates [3]
1 | COc1ccc(-c2coc3cc(O)ccc3c2=O)cc1O [C, calycosin] | 2% | no statistical difference; also recorded: no significant effect | much improved neurological function | 10.99±6.07% | partially blocked |  | 
2 | O=c1c(-c2ccc(O)cc2)coc2cc(O)ccc12 [D, daidzein] | 2% | no statistical difference | much improved neurological function | 13.84±0.95% |  | no significant effect | 
3 | COc1ccc(-c2coc3cc(O)ccc3c2=O)cc1 [F, formononetin] | 2% | no significant effect |  | 10.76±4.21% |  |  | about 50%
